Reference: paper PMC3411647 (PLoS ONE, 2012)

Assays:
[1] = target: T1, hH3R (Homo sapiens, UniProt Q9Y5N1); assay: Saturation radioligand binding (Scatchard) of [3H]N-α-methylhistamine (0.03-50 nM) to membranes of HEK-293 cells expressing hH3R, 50 mM Tris-HCl pH 7.4, room temperature.
T1 construct: gene HRH3; recombinant, cDNA from human thalamus RNA (AF140538), stably expressed in HEK-293 cells; vectors pCMV-Flag and pEGFP-N1
Protocol: (§1) HEK-293 cells stably expressing H3R were harvested and resuspended in ice-cold 50 mM Tris-HCl (pH 7.4) containing a complete protease inhibitor cocktail tablet and mixed by inverting. The cell pellet was homogenized with a Polytron PT 1200 set at 4000 rpm and centrifuged at 1,000 g for 5 min. The supernatant was then centrifuged twice at 50,000 g for 30 min at 4°C. Finally, the resulting pellet was gently suspended in 50 mM Tris-HCl (pH 7.4) buffer and the membrane concentration was determined using Bio-Rad protein assays.
The membranes (50 µg of protein) were incubated with [^3H] N-α-methylhistamine at various concentrations (from 0.03 nM to 50 nM) for saturation binding assays. For competitive binding assays, the membranes (50 µg of protein) were incubated with 10 nM [^3H] N-α-methylhistamine for recombinant hH3R or 2nM [^3H] N-α-methylhistamine for rat brain H3R in the presence of various compound concentrations in the buffer (50 mM Tris–HCl, pH 7.4). The reaction mixtures were incubated for 90–120 min at room temperature to achieve binding equilibrium. Following three washes, the membrane-bound radioactivity was measured on a Topcount (PerkinElmer) at 20°C. […] IC50 values were converted to Ki values using the Cheng-Prusoff equation. […] All data were analyzed by nonline arregression using GraphPad Prism version 4.0 software.

[2] = target: T2, rat brain H3R (Rattus norvegicus, UniProt Q9QYN8); assay: Competitive/saturation binding with [3H]N-α-methylhistamine, rat cerebral cortex membranes; settings: saturation binding, rat cerebral cortex
T2 construct: from tissue; host or cells: rat cerebral cortex membranes
Protocol: (§2) Figure 4 Competition binding experiments with [^3H]-N-α-methylhistamine. […] The presented data are the means ±SE of values from a single experiment performed in duplicate and are representative of three to six separate experiments.
(§3) The membranes (50 µg of protein) were incubated with [^3H] N-α-methylhistamine at various concentrations (from 0.03 nM to 50 nM) for saturation binding assays. For competitive binding assays, the membranes (50 µg of protein) were incubated with 10 nM [^3H] N-α-methylhistamine for recombinant hH3R or 2nM [^3H] N-α-methylhistamine for rat brain H3R in the presence of various compound concentrations in the buffer (50 mM Tris–HCl, pH 7.4). […] Following three washes, the membrane-bound radioactivity was measured on a Topcount (PerkinElmer) at 20°C. […] IC50 values were converted to Ki values using the Cheng-Prusoff equation. Each experiment was performed in duplicate and repeated three to six times. All data were analyzed by nonline arregression using GraphPad Prism version 4.0 software.

[3] = target: T3, H3R-EGFP (Homo sapiens, UniProt Q9Y5N1); assay: Recycling of internalized H3R-EGFP to the cell surface, confocal microscopy; type: cell-based; settings: 20 µM ZEL-H16 or 500 µM histamine for 30 min, cycloheximide 100 µg/ml
T3 construct: expressed in transfected cells
Protocol: Figure 6 Localization of internalized H3R-EGFP stably expressed in HEK-293 cells and recycling of internalized H3R to the cell surface. […] All pictures shown are representative of at least three independent experiments.
HEK-293 cells stably expressing H3R-EGFP were seeded in covered glass-bottom 6-well plates. […] After fixing the cells with 4% paraformaldehyde for 10 min, cells were mounted in mounting reagent (DTT/PBS/glycerol). Confocal images were taken on a Zeiss LSM 510 microscope with an attached Axiovert 200 microscope and LSM5 computer system. Images were collected using QED camera software and processed with Adobe Photoshop.

[4] = target: T4, H3R (Cavia porcellus, UniProt Q9JI35); assay: Guinea-pig ileum bioassay, inhibition of electrically induced twitch
T4 construct: from tissue; host or cells: guinea-pig ileum segments
Protocol: Each point is the mean ± s.e.m. of three to six separate experiments.
The procedure used was as described previously. Adult male guinea pigs (300–500 g) were killed by cervical dislocation. The ileum was removed at a point 20 cm from the caecum and flushed with and placed in modified K–H buffer of following composition: 118 mM NaCl, 5.9 mM KCl, 1.2 mM CaCl2, 1.2 mM MgSO4, 1 mM Na2HPO4, 25 mM NaHCO3 and 10 mM D-glucose. Ileum segments (2.5–3 cm) were suspended in 20 ml organ baths containing K–H buffer maintained at 37°C and gassed with 95% O2/5% CO2. Contractile activity under stimulation (rectangular pulses of 15 V, 0.5 ms, and 0.1 Hz) was recorded using isometric transducers (Grass FTO3). […] Mepyramine ([…]) and famotidine ([…]) (Sigma-Aldrich, St. Louis, MO) were added to the K–H buffer to block postsynaptic H1 and presynaptic H2 receptors, respectively.

[5] = target: T5, H3R (Homo sapiens, UniProt Q9Y5N1); assay: H3R internalization, cell-surface ELISA in HEK-293 cells stably transfected with Flag-H3R; type: cell-based; settings: 100 µM, 45 min at 37°C
T5 construct: expressed in transfected cells
Protocol: ELISA data are expressed as the percentage of receptors detected on the surface of agonist-untreated cells expressing H3R. Error bars represent the SEM for four replicates.
The cell surface expression of H3R was quantitatively assessed by ELISA and performed as described previously. Briefly, HEK-293 cells stably transfected with the pCMV-H3R construct were seeded in 48-well dishes coated with poly-L-lysine. […] Medium was aspirated and the cells were washed once with Tris-buffered saline (TBS). […] Cells were then incubated for 1 h with an alkaline phosphatase-conjugated monoclonal antibody directed against the Flag epitope and diluted 1∶1,000. Cells were washed 3 times, and antibody binding was visualized by adding 0.25 mL of an alkaline phosphatase substrate (Bio-Rad). Development was stopped by adding 0.1 mL of the substrate to a 96-well microtiter plate containing 0.1 mL of 0.4 M NaOH.

[6] = target: T6, human histamine H3 receptor (Homo sapiens, UniProt Q9Y5N1); assay: Competitive/saturation binding with [3H]N-α-methylhistamine, H3R/HEK-293 cell membranes
T6 construct: expressed in transfected cells
Protocol: as §2, §1, §3

[7] = target: histamine H4 receptor; settings: cited from earlier work
[8] = target: T5, H3R; assay: ERK1/2 phosphorylation (Western blot) in HEK-293 cells stably expressing H3R; type: cell-based
Protocol: Figure 7 Phosphorylation of ERK1/2 induced by ZEL-H16 in H3R-expressing HEK-293 cells. […] Signals were quantified by densitometric image analysis and p-ERK was normalized to a loading control (ERK). […] Concentration -dependent phosphorylation signals were quantified by densitometric analysis and p-ERK levels were normalized to total ERK levels. […] C, The phosphorylation of ERK1/2 induced by ZEL-H16 could be entirely abolished by co-incubation with H3R antagonist thioperamide (***p<0.001). Data represent the mean ±SE of three independent experiments.
HEK-293 cells stably expressing human H3R were grown in a 6-well plate and were serum starved 2 h in serum-free culture medium prior to stimulation. Cells were stimulated with the indicated H3R ligands at the designated concentrations. Incubations were stopped at the indicated times by removing the stimulation medium by aspiration. The cells were washed in ice-cold PBS and subsequently lysed in 100 µl of lysis buffer [20 mM HEPES (pH 7.5), 10 mM EDTA, 150 mM NaCl, 1% Triton X-100, and one tablet of complete protease inhibitor (Roche, Indianapolis, IN) per 50 mL] at 4°C on a rocker for 30 min. The lysates were centrifuged and separated by sodium dodecyl sulfate-polyacrylamide (12%) gel electrophoresis (SDS-PAGE) and blotted onto polyvinylidene difluoride membranes. Membranes were blocked for 1 h at room temperature in TBST (10 mmol/L Tris, 150 mmol/L NaCl, 0.1% Tween-20, pH 8.0) buffer containing 5% (v/w) skim milk. Membranes were probed overnight with primary antibodies against p-ERK1/2 (1∶1,000; Cell Signaling, Danvers, MA) in TBST containing 5% (v/w) BSA, and then probed with horseradish peroxidase-labeled secondary antibody (1∶5,000) for 1 h at room temperature in TBST containing 5% (v/w) milk powder. Immunoreactivity was detected by ECL assays. The blots were stripped and reprobed using antibodies against total ERK1/2 (1∶2,000) (Cell Signaling, Danvers, MA) as a control.

[9] = target: T7, mouse H3R (Mus musculus, UniProt P58406); assay: ERK1/2 phosphorylation in neonatal mouse cortical neuron cultures; type: cell-based
T7 construct: endogenous in cells; host or cells: primary cortical neurons of neonatal ICR mice
Protocol: Figure 8 Phosphorylation of ERK1/2 induced by ZEL-H16 in mouse cortical neurons. A, Time-dependent phosphorylation of ERK1/2 induced by 5 µM ZEL-H16 in neonatal mouse cortical neuron cultures. B, The phosphorylation of ERK1/2 induced by 50 µM ZEL-H16 for 20 min was mostly abolished by 100 ng/mL PTX or 10 µM thioperamide. Signals were quantified by densitometric image analysis and p-ERK was normalized to a loading control (ERK). The signal at each point is expressed as the percentage of the maximal p-ERK signal induced by ZEL-H16. Data represent the mean ±SE of three independent experiments.
Neuronal cortical cultures were prepared from neonatal ICR mice. Cerebral cortices were dissociated in sterile Dulbecco’s phosphate-buffered saline (D-PBS; Sigma-Aldrich, St. Louis, MO), and the neurons were isolated in the same medium containing 0.5% trypsin at 37°C for 10 min. After centrifugation, dissociated neurons were re-suspended in neurobasal medium (NBM; Gibco, Carlsbad, CA) supplemented with 2% B-27 and 0.5 mmol/L-glutamine (Gibco, Carlsbad, CA) and then plated on 48-well plates at a density of approximately 1.3×10^6 per well. After 7 days of culture, the neurons were serum starved for approximately 3 h prior to drug treatment. […]

T5 sequence (Q9Y5N1 whole entry): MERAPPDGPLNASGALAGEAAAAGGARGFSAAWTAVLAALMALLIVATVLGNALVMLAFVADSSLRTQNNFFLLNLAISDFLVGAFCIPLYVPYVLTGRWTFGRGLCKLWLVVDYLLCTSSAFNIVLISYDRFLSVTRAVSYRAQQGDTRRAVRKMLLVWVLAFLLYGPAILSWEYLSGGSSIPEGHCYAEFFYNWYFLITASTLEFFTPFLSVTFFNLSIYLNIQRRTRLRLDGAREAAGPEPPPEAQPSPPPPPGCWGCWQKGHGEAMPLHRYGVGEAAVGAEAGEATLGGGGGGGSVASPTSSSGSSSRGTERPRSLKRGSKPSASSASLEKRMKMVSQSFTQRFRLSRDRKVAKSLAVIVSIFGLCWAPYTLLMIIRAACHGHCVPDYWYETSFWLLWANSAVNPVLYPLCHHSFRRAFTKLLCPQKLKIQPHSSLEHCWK
T4 sequence (Q9JI35 whole entry): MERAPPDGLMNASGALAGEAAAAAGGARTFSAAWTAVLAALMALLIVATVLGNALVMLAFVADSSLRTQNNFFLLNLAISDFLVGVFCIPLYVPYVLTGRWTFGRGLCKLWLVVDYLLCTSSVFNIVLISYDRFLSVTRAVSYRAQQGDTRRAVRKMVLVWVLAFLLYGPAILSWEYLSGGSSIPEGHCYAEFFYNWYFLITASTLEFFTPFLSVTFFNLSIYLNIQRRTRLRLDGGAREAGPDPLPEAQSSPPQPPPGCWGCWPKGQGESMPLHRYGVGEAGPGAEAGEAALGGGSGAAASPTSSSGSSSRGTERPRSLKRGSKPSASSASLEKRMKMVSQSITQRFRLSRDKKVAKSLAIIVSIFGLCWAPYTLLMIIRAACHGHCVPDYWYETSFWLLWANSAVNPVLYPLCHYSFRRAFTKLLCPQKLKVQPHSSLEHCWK
T7 sequence (P58406 whole entry): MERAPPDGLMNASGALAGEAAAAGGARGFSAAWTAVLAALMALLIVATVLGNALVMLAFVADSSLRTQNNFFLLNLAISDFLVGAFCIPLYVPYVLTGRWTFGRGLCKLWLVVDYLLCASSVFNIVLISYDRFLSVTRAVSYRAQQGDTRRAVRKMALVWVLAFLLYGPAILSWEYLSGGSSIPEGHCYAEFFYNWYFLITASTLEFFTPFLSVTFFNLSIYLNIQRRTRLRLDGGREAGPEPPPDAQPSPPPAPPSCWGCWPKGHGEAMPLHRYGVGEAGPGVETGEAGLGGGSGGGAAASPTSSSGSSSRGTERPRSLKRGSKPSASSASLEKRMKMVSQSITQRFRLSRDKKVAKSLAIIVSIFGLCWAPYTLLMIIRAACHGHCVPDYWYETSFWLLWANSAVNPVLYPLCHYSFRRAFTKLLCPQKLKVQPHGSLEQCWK
T2 sequence (Q9QYN8 whole entry): as the sequence (P58406 whole entry) above, with A15T, T286A, G290A, H387R, V389I counted along it
T1 sequence (Q9Y5N1 whole entry): as the sequence (Q9Y5N1 whole entry) above
T3 sequence (Q9Y5N1 whole entry): as above
T6 sequence (Q9Y5N1 whole entry): as above

Structure (SMILES): CNCCc1c[nH]cn1 [[^3H]N-α-methylhistamine, [3H]N-alpha-methylhistamine]
- Kd [1]: 710 pM

Structure (SMILES): CNCCc1cnc[nH]1 [[^3H]N-α-methylhistamine, reference compound]
- Kd [2]: 830 pM

Structure (SMILES): NCCc1c[nH]cn1 [histamine, reference compound]
- time for internalized H3R to recycle to the cell surface after agonist removal [3]: ≤ 1 h
- efficacy of inhibition of the contractions of the guinea pig ileum ([4]; electrically induced twitch, mepyramine and famotidine present): 54.52±0.99%
- EC50 ([4]; inhibition of electrically induced twitch, read-out: pD 2 (converted)): 95500 pM
- loss in the expression of the receptors on the cell surface (internalization) [5]: 18–20%

Structure (SMILES): N=C(N)SCCc1c[nH]cn1 [imetit, S-[2-(4-imidazolyl)ethyl]isothiourea, reference compound]
- Ki [6]: 900 ± 60 pM
- loss in the expression of the receptors on the cell surface (internalization) [5]: 18–20%

Structure (SMILES): c1nc(CC2CCNCC2)c[nH]1 [immepip, 4-(1H-imidazol-4-ylmethyl)piperidine]
- pKi [7]: 7.66

Structure (SMILES): S=C(NC1CCCCC1)N1CCC(c2cnc[nH]2)CC1 [thioperamide]
- effect on ERK1/2 phosphorylation induced by 50 µM ZEL-H16 [8]: completely abolished
- effect on ERK phosphorylation induced by 50 µM ZEL-H16 at 20 min [9]: abolish most of the stimulatory effects
